# Results: PMC3593816 (Protein expression and purification, 2013)
# Target: T1, Siglec5 (Homo sapiens, UniProt O15389, C36A)
# T1 sequence (O15389 19-141 C36A): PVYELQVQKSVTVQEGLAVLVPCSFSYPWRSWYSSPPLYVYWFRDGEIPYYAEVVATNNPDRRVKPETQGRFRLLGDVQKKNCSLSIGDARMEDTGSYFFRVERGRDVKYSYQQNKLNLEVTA
# Assay: 2D 1H-15N HSQC NMR titration
# Assay type: binding
row,Kd [mM],SMILES
1,> 100,CC(=O)N[C@H]1[C@H]([C@H](O)[C@H](O)CO)OC(O)(C(=O)O)C[C@@H]1O (mixture of isomers) [sialic acid]
2,31 ± 8,CC(=O)N[C@H]1[C@H]([C@H](O)[C@H](O)CO)O[C@@](OC[C@H]2O[C@@H](O[C@H]3[C@H](O)[C@@H](O)C(O)O[C@@H]3CO)[C@H](O)[C@@H](O)[C@H]2O)(C(=O)O)C[C@@H]1O (some centres unmarked) [6′-sialyllactose]
